The text below walks through data of publication PMC7148434, “ACE-domain selectivity extends beyond direct interacting residues at the active site” (Biochemical Journal, 2020).

Square brackets hold non-standard residues; d marks the D form. Ends that are not written are not given here. * marks the point of attachment. Dnp = O=[N+]([O-])c1ccc(*)c([N+](=O)[O-])c1; 2Abz = Nc1ccccc1C(=O)O

In series [1] the test system is nACE. Kind of series: Inhibitor binding kinetics, modified Abz-FRK(Dnp)P-OH assay, wild-type N-domain. In kind it is biochemical. Conditions: Ki cACE / Ki nACE (N-selectivity). The protocol: (§1) Serial dilutions of an appropriate range were prepared for each inhibitor in the aforementioned assay buffer. An appropriate concentration of enzyme was similarly prepared and incubated with an equal volume of inhibitor for 15 min at 22°C after which 20 μl volumes of the reactions were aliquoted to a 96-well plate. […] Control (zero inhibitor) reactions containing the appropriate concentration of methanol or DMSO (in the case of ketoACE-13 or omapatrilat, respectively) were included to correct for any possible vehicle-induced effects on the reaction rate.

Series [2] has as its target S′-nACE (S260T, E262S, D354E, S357V, T358V and E431D) (Homo sapiens, UniProt P12821, D383E/E291S/E460D/S289T/S386V/T387V). Kind of series: Inhibitor binding kinetics, modified Abz-FRK(Dnp)P-OH assay, S′ mutant. Type of series: biochemical. Conditions: for Selectivity (Ki cACE/Ki nACE or mutant): Ki cACE / Ki S′-nACE; for decrease in binding affinity compared with nACE: S′-nACE relative to nACE; for Ki: S′-nACE, Morrison plot, 50 mM HEPES pH 6.8, 200 mM NaCl, 10 μM ZnCl2, mean ± SD. As to the method:
as §1

A further series addresses cACE (Homo sapiens, UniProt P12821). Description: Inhibitor binding kinetics, modified Abz-FRK(Dnp)P-OH assay, wild-type C-domain. To be noted: for Ki: cACE, Morrison plot, 50 mM HEPES pH 6.8, 200 mM NaCl, 10 μM ZnCl2, mean ± SD. Type of series: biochemical. As to the method:
as §1

Series [3] has as its target nACE (Homo sapiens, UniProt P12821). Kind of series: Inhibitor binding kinetics, modified Abz-FRK(Dnp)P-OH assay, wild-type N-domain. Type of series: biochemical. On the set-up: The truncated (single domain) wild-type N-domain (nACE); made in house; host or cells: CHO-K1. Conditions: nACE; Morrison plot; 50 mM HEPES pH 6.8, 200 mM NaCl, 10 μM ZnCl2; mean ± SD. The protocol: as §1

The target of series [4] is S2-nACE (Y369F and R381E) (Homo sapiens, UniProt P12821, R410E/Y398F). Kind of series: Inhibitor binding kinetics, modified Abz-FRK(Dnp)P-OH assay, S2 mutant. In kind it is biochemical. On the set-up: The truncated (single domain) wild-type N-domain (nACE), N-domain mutant constructs; made in house; host or cells: CHO-K1. To be noted: for Selectivity (Ki cACE/Ki nACE or mutant): Ki cACE / Ki S2-nACE; for Ki: S2-nACE, Morrison plot, 50 mM HEPES pH 6.8, 200 mM NaCl, 10 μM ZnCl2, mean ± SD; for decrease in binding affinity compared with nACE: S2-nACE relative to nACE. As to the method:
as §1

The target in series [5] is S2_S′-nACE (S260T, E262S, D354E, S357V, T358V, Y369F, R381E and E431D) (Homo sapiens, UniProt P12821, D383E/E291S/E460D/R410E/S289T/S386V/T387V/Y398F). Description: Inhibitor binding kinetics, modified Abz-FRK(Dnp)P-OH assay, combined S2_S′ mutant. On the set-up: The truncated (single domain) wild-type N-domain (nACE), N-domain mutant constructs; made in house; host or cells: CHO-K1. In kind it is biochemical. To be noted: for Selectivity (Ki cACE/Ki nACE or mutant): Ki cACE / Ki S2_S′-nACE; for binding affinity lower than that of cACE: S2_S′-nACE relative to cACE; for Ki: S2_S′-nACE, Morrison plot, 50 mM HEPES pH 6.8, 200 mM NaCl, 10 μM ZnCl2, mean ± SD; for decrease in binding affinity compared with nACE: S2_S′-nACE relative to nACE. As to the method:
as §1

A short description of series [6]: Integrity of omapatrilat at ambient temperature monitored by HPLC (dimer formation). Type of series: physicochemical. As to the method:
The fluorogenic substrate Abz-FRK(Dnp)P-OH was a kind gift from Prof A.K. Carmona, Universidade Federal de São Paulo. The peptide was dissolved in 100% DMSO and the concentration determined by measuring the absorbance at 365 nm and extinction coefficient of 17 300 M^−1 cm^−1. Subsequent dilutions from the 1 mM stock of were made in assay buffer (50 mM HEPES, pH 6.8, 10 μM ZnCl2, 200 mM NaCl). […] KetoACE-13 was dissolved in 100% methanol to a stock concentration of 50 mM, followed by dilution in deionized distilled water to 10 mM. Since the dimerization of omapatrilat has been previously described, fresh 10 mM stocks of inhibitor were prepared in DMSO directly prior to kinetic analysis. The integrity of omapatrilat at ambient temperature was monitored at 50 µM by HPLC (Agilent 1260 Infinity HPLC System with a Poroshell 120 EC-C 18 column) over the timeframe of each assay, as previously described. A 20 µl injection volume was used with a 0.5 ml/min flow rate with A: 1% ACN, 0.1% TFA; B: 95% ACN, 0.1% TFA; and 0–100% B over 10 min; 214 nm.
Figure 2 . Effect of mutation on N-selective inhibition, integrity of omapatrilat at ambient temperature as monitored by HPLC and SDS–PAGE gel illustrating the decreased molecular mass of the active site mutant N389-S2_S′-nACE. (A) Inhibitor binding affinities (Ki values) for wild-type cACE or nACE mutants are shown on a log scale relative to nACE with error bars representing mean ± SD of at least two independent experiments. (B) Omapatrilat (50 μM in assay buffer) was analyzed using a Poroshell 120 EC-C 18 column on the Agilent 1260 infinity HPLC system. Twenty microliters of the sample was injected onto the column immediately after preparation or following incubation at ambient temperature for 1, 2 or 3 h. Conditions: A: 1% ACN, 0.1% TFA; B: 95% ACN, 0.1% TFA; 0–100% B over 10 min; 0.5 ml/min, 214 nm. […] (C) SDS–PAGE of purified nACE proteins (1) fully glycosylated S2_S′-nACE, (2) minimally glycosylated N389-nACE and (3) minimally glycosylated N389-S2_S′-nACE.

The target of series [7] is S2-nACE (N-domain mutant Y369F and R381E).
Series [8] deals with S2_S′-nACE (N-domain mutant S260T, E262S, D354E, S357V, T358V, Y369F, R381E and E431D).
Series [9] deals with S′-nACE (N-domain mutant S260T, E262S, D354E, S357V, T358V and E431D).
The target of series [10] is Wild-type C-domain of angiotensin-converting enzyme (cACE).
In series [11] the target is Wild-type N-domain of angiotensin-converting enzyme (nACE).

The Ki is a measure of affinity in units of concentration, obtained from inhibition or displacement.

S2_S′-nACE (S260T, E262S, D354E, S357V, T358V, Y369F, R381E and E431D), sequence (P12821 40-624 S289T/E291S/D383E/S386V/T387V/Y398F/R410E/E460D): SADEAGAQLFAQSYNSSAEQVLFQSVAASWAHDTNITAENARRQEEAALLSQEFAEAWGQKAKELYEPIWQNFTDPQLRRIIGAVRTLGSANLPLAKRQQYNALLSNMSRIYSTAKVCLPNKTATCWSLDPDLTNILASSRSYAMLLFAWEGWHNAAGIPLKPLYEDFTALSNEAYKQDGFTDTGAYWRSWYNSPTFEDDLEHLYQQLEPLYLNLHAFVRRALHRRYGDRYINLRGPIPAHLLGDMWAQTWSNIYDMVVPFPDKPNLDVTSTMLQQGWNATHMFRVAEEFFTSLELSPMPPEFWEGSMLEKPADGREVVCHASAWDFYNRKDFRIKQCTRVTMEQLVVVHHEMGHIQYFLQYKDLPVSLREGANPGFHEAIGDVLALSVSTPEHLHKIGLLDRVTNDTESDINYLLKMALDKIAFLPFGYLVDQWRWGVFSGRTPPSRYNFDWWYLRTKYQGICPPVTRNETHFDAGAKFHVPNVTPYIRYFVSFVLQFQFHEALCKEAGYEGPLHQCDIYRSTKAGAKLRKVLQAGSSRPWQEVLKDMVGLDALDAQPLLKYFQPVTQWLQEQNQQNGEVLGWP
S2-nACE (Y369F and R381E), sequence (P12821 40-624 Y398F/R410E): as the sequence (P12821 40-624 S289T/E291S/D383E/S386V/T387V/Y398F/R410E/E460D) above, with T250S, S252E, E344D, V347S, V348T, D421E counted along it
S′-nACE (S260T, E262S, D354E, S357V, T358V and E431D), sequence (P12821 40-624 S289T/E291S/D383E/S386V/T387V/E460D): as the sequence (P12821 40-624 S289T/E291S/D383E/S386V/T387V/Y398F/R410E/E460D) above, with F359Y, E371R counted along it
cACE, sequence (P12821 643-1222 limits assumed): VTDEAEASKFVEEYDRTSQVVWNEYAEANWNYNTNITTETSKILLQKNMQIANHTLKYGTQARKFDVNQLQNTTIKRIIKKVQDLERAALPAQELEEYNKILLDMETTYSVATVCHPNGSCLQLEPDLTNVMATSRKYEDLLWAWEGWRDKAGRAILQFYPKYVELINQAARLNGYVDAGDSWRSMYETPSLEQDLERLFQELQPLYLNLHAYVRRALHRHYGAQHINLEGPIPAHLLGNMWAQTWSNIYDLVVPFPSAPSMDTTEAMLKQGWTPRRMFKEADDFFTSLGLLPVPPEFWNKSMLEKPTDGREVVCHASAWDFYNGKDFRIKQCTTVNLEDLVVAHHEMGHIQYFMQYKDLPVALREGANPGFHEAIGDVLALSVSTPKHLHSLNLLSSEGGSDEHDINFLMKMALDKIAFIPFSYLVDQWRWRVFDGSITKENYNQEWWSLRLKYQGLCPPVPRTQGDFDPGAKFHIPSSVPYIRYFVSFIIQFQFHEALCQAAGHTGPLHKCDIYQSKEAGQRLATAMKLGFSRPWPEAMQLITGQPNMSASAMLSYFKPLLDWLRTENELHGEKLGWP
nACE (Homo sapiens, UniProt P12821), sequence (P12821 40-624 limits assumed): as the sequence (P12821 40-624 S289T/E291S/D383E/S386V/T387V/Y398F/R410E/E460D) above, with T250S, S252E, E344D, V347S, V348T, F359Y, E371R, D421E counted along it

Turning to `CC(C)(C)OC(=O)NC(CC(=O)O)C(=O)NC(Cc1ccccc1)C(=O)CCC(=O)N1CCCC1C(=O)O` (stereo not drawn) [KetoACE13], the “Selectivity (Ki cACE/Ki nACE or mutant)” value in the series with nACE [1] is 8; in series [2], 3; on cACE, 1; in series [4] it was 0.5; in series [5], 0.2. The “decrease in binding affinity compared with nACE” value (“decrease in binding affinity” for short) in [2] amounted to 3 fold. The Ki in series [2] was 2990 ± 1000 nM; on cACE it was 8250 ± 430 nM; on nACE [3] it was 1000 ± 270 nM; in series [4] it was 17800 nM; in series [5], 47800 nM. In addition, the “binding affinity lower than that of cACE” value in series [5] came out at 6 fold.
On to `O=C(N[C@H]1CCS[C@H]2CCC[C@@H](C(=O)O)N2C1=O)[C@@H](S)Cc1ccccc1` [Omapatrilat, omapatrilat, reference compound], for which the “Selectivity (Ki cACE/Ki nACE or mutant)” value in the series on nACE [1] is on record as 2; in [2] it was 1; on cACE it was 1; in [4], 2; in series [5], 2. Also, the Ki in [2] is 0.49 ± 0.04 nM; at cACE, 0.7 ± 0.09 nM; at nACE [3] it was 0.37 ± 0.05 nM; in [4], 0.43 ± 0.13 nM; in series [5], 0.29 ± 0.01 nM. The “fraction of dimer detected” value in series [6] (50 μM in assay buffer (50 mM HEPES pH 6.8), immediately after solubilization) turned out to be 2.56%; in series [6] (50 μM in assay buffer, after 3 h of incubation at ambient temperature), 11%. Moreover, in [6] (50 μM in assay buffer, after 1 h at ambient temperature), the “increase in fraction of dimer” value is listed as 0.86%.
`CC(NC(C(=O)O)C1CCCN1C(=O)C(N)CC(=O)O)C(=O)N1CCCC1C(=O)O` (stereo not drawn) [SG6]: the “Selectivity (Ki cACE/Ki nACE or mutant)” value in the series with nACE [1] is 825; in series [2], 70; on cACE it was 1; in series [4], 1.7; in [5] it was 1.1. Moreover, the “decrease in binding affinity” value in series [2] turned out to be 11 fold; in [4], 474 fold; in [5] it was 784 fold. In addition, the Ki in series [2] was determined as 1.09 ± 0.1 nM; at cACE, 76.8 ± 4.3 nM; at nACE [3], 0.093 ± 0.02 nM; in series [4] it was 44 ± 2.8 nM; in series [5], 72.9 ± 7.5 nM.
Turning to `C[C@H](N[C@@H](CCc1ccccc1)C(=O)O)C(=O)N1CCC[C@H]1C(=O)O` [Enalaprilat, enalaprilat, reference compound], the “decrease in binding affinity” value came out at 2.5 fold in series [2], 2 fold in series [4] and 4 fold in series [5]. Moreover, the “greater affinity to cACE than nACE” value on cACE (cACE relative to nACE) worked out at 5 fold. In addition, in [5], the “binding affinity lower than that of cACE” value is 19 fold.

B1: Abz-FRK(Dnp)P-OH (peptide)
peptide: [2Abz]FRK(Dnp)P-OH
modifications: N-terminus assumed
SMILES: N=C(N)NCCC[C@H](NC(=O)[C@H](Cc1ccccc1)NC(=O)c1ccccc1N)C(=O)N[C@@H](CCCCNc1ccc([N+](=O)[O-])cc1[N+](=O)[O-])C(=O)N1CCC[C@H]1C(=O)O
Take B1: the Km of Abz-FRK(Dnp)P-OH hydrolysis (Michaelis-Menten model, initial velocities; 50 mM HEPES pH 6.8, 200 mM NaCl, 10 µM ZnCl2, ambient temperature) in series [7] is 11.9 μM; in series [8], 12.4 μM; in series [9] it was 4.51 μM; in series [10], 6.3 μM; in series [11] it was 7.54 μM.
